According to US11352322B2, “Cyclopropyl-amide compounds as dual LSD1/HDAC inhibitors” (Jubilant Epicore LLC, priority 2016, dated 2022):
Counter-ions that a name gives are not always drawn.

Assays:
[1] = Metabolic stability in liver microsomes, HLM; conditions: 1 μM, NADPH
Experimental: (§1) The microsomal suspension was prepared by adding liver microsomes to 100 mM potassium phosphate buffer (pH7.4) to give a final protein concentration of 0.5 mg/mL. The stock solution of NCE (10 mM in DMSO) was added to the microsomes to provide a final concentration of 1 μM. […] Samples were vortexed and centrifuged at 5,000 rpm for 10 min to remove proteins. Supernatant were analyzed on LC-MS/MS.

MM1S = experiment: Anticancer activity: Alamar Blue assay, MM1S; type: cell-based; conditions: Homo sapiens, MM1.S, read-out: MM1S EC50
[2] = Metabolic stability in liver microsomes, MLM; conditions: 1 μM, NADPH
Experimental: as §1

Row | Compound | Metabolic stability HLM % remaining in 30 min [1] [%] | EC50 (MM1S) [nM] | Metabolic stability MLM % remaining in 30 min [2] [%]
1 | O=C(NO)c1ccc(CCC(=O)N2CCN(C(=O)CNC3CC3c3ccccc3)CC2)cc1 (stereo not drawn) [Example 92, N-hydroxy-4-(3-oxo-3-(4-(2-((2-phenylcyclopropyl)amino)acetyl)piperazin-1-yl)propyl)benzamide TFA Salt] | 95 | 1400 | 91
2 | O=C(NO)c1cnc(N2CCC(CNC3CC3c3ccc(OCc4ccc(F)cc4)cc3)CC2)nc1 (stereo not drawn) [Example 11, 2-(4-(((2-(4-((4-fluorobenzyl)oxy)phenyl)cyclopropyl)amino)methyl)piperidin-1-yl)-N-hydroxypyrimidine-5-carboxamide TFA Salt] | 44 | 18 | 14
3 | O=C(NO)c1ccc(CN2CCN(C(=O)CNC3CC3c3ccccc3)CC2)cc1 (stereo not drawn) [Example 91, N-hydroxy-4-((4-(2-((2-phenylcyclopropyl)amino)acetyl)piperazin-1-yl)methyl)benzamide TFA Salt] | 85 | 468 | 79
4 | O=C(NO)c1ccc(OCCCNC2CC2c2ccccc2)cc1 (stereo not drawn) [Example 101, N-hydroxy-4-(3-((2-phenylcyclopropyl)amino)propoxy)benzamide TFA Salt] | 59 | 29 | 29
5 | O=C(NO)c1ccc(CCCn2cnc(CNC3CC3c3ccc(F)c(F)c3)c2)cc1 (stereo not drawn) [Example 73, 4-(3-(4-(((2-(3,4-difluorophenyl)cyclopropyl)amino)methyl)-1H-imidazol-1-yl)propyl)-N-hydroxybenzamide TFA Salt] | 52 | 540 | 53
6 | O=C(NO)c1ccc2c(c1)CN(C(=O)CCCNC1CC1c1ccc(F)cc1)C2 (stereo not drawn) [Example 108, 2-(4-((2-(4-fluorophenyl)cyclopropyl)amino)butanoyl)-N-hydroxyisoindoline-5-carboxamide TFA Salt] | > 95 | 584 | 85
7 | Nc1ccccc1NC(=O)c1ccc(CCCN2CCC(CNC3CC3c3ccccc3)CC2)cc1 (stereo not drawn) [Example 121, N-(2-aminophenyl)-4-(3-(4-(((2-phenylcyclopropyl)amino)methyl)piperidin-1-yl)propyl)benzamide TFA Salt] | 36 | 3 | 42
8 | Cc1noc(C)c1-c1ccc(C2CC2NCc2ccc(/C=C/C(=O)NO)cc2)cc1 (stereo not drawn) [Example 6, (E)-3-(4-(((2-(4-(3,5-dimethylisoxazol-4-yl)phenyl)cyclopropyl)amino)methyl)phenyl)-N-hydroxyacrylamide TFA Salt] | 44 | 34 | < 5
9 | COc1ccc(C2CC2NC2CCN(c3ncc(C(=O)NO)cn3)CC2)cc1 (stereo not drawn) [Example 19, N-hydroxy-2-(4-((2-(4-methoxyphenyl)cyclopropyl)amino)piperidin-1-yl)pyrimidine-5-carboxamide TFA Salt] | 83 | 7 | 71
10 | O=C(NO)c1cnc(N2CCC(CNC3CC3c3ccc(-c4cncnc4)cc3)CC2)nc1 (stereo not drawn) [Example 17, N-hydroxy-2-(4-(((2-(4-(pyrimidin-5-yl)phenyl)cyclopropyl)amino)methyl)piperidin-1-yl)pyrimidine-5-carboxamide TFA Salt] | 69 | 17 | 57
11 | O=C(CCCCCCNC(=O)c1ccc(CNC2CC2c2ccc(F)cc2)cc1)NO (stereo not drawn) [Example 32, 4-(((2-(4-fluorophenyl)cyclopropyl)amino)methyl)-N-(7-(hydroxyamino)-7-oxoheptyl)benzamide TFA Salt] | 41 | 17 | 22
12 | O=C(NO)c1cnc(N2CCn3cc(CNC4CC4c4ccc(F)cc4)nc3C2)nc1 (stereo not drawn) [Example 25, 2-(2-(((2-(4-fluorophenyl)cyclopropyl)amino)methyl)-5,6-dihydroimidazo[1,2-a]pyrazin-7(8H)-yl)-N-hydroxypyrimidine-5-carboxamide TFA Salt] | 75 | 11 | 85
13 | O=C(NO)c1cnc(N2CCC(NC3CC3c3ccccc3)CC2)nc1 (stereo not drawn) [Example 9, 2-[4-(2-Phenyl-cyclopropylamino)-piperidin-1-yl]-pyrimidine-5-carboxylic Acid Hydroxyamide TFA Salt] | 65 | 4 | 50
14 | Nc1ccccc1NC(=O)c1ccc(CCCN2CCC(CNC3CC3c3ccc(F)c(F)c3)CC2)cc1 (stereo not drawn) [Example 124, N-(2-aminophenyl)-4-(3-(4-(((2-(3,4-difluorophenyl)cyclopropyl)amino)methyl)piperidin-1-yl)propyl)benzamide TFA Salt] | 73 | 14 | 68
15 | COc1ccc(C2CC2NCC2CCN(CCCc3ccc(C(=O)Nc4ccccc4N)cc3)CC2)cc1 (stereo not drawn) [Example 123, N-(2-aminophenyl)-4-(3-(4-(((2-(4methoxyphenyl)cyclopropyl)amino)methyl)piperidin-1-yl)propyl)benzamide TFA Salt] | 82 | 9 | 72
16 | COc1ccc(C2CC2NCc2cn3c(n2)CN(c2ncc(C(=O)NO)cn2)CC3)cc1 (stereo not drawn) [Example 24, N-hydroxy-2-(2-(((2-(4-methoxyphenyl)cyclopropyl)amino)methyl)-5,6-dihydroimidazo[1,2-a]pyrazin-7(8H)-yl)pyrimidine-5-carboxamide TFA Salt] | 71 | 9 | 74
17 | O=C(NO)c1ccc(OCCCN2CCC(CNC3CC3c3ccccc3)CC2)cc1 (stereo not drawn) [Example 100, N-hydroxy-4-(3-(4-(((2-phenylcyclopropyl)amino)methyl)piperidin-1-yl)propoxy)benzamide TFA Salt] | 63 | 17 | 57
18 | Nc1ccccc1NC(=O)c1ccc(CCCN2CCC(CNC3CC3c3ccc(F)cc3)CC2)cc1 (stereo not drawn) [Example 122, N-(2-aminophenyl)-4-(3-(4-(((2-(4-fluorophenyl)cyclopropyl)amino)methyl)piperidin-1-yl)propyl)benzamide TFA Salt] | 77 | 15 | 72
19 | COc1ccc(C2CC2NCC2CCN(c3ncc(C(=O)NO)cn3)CC2)cc1 (stereo not drawn) [Example 18, N-hydroxy-2-(4-(((2-(4-methoxyphenyl)cyclopropyl)amino)methyl)piperidin-1-yl)pyrimidine-5-carboxamide TFA Salt] | 41 | 3 | 28
20 | O=C(NO)c1cnc(N2CCC(NC3CC3c3ccc(-c4ccc(Cl)cc4)cc3)CC2)nc1 (stereo not drawn) [Example 13, 2-(4-((2-(4′-chloro-[1,1′-biphenyl]-4-yl)cyclopropyl)amino)piperidin-1-yl)-N-hydroxypyrimidine-5-carboxamide TFA Salt] | 57 | 24 | 23
21 | O=C(NO)c1cnc(N2CCC(NC3CC3c3ccc(F)cc3)CC2)nc1 (stereo not drawn) [Example 10, 2-{4-[2-(4-Fluoro-phenyl)-cyclopropylamino]-piperidin-1-yl}-pyrimidine-5-carboxylic acid hydroxyamide TFA salt] | 81 | 9 | 55
22 | Cc1noc(C)c1-c1ccc(C2CC2NCC2CCN(c3ncc(C(=O)NO)cn3)CC2)cc1 (stereo not drawn) [Example 16, 2-(4-(((2-(4-(3,5-dimethylisoxazol-4-yl)phenyl)cyclopropyl)amino)methyl)piperidin-1-yl)-N-hydroxypyrimidine-5-carboxamide TFA Salt] | 47 | 17 | 25
23 | O=C(NO)c1cnc(N2CCC(CNC3CC3c3ccc(-c4ccc(Cl)cc4)cc3)CC2)nc1 (stereo not drawn) [Example 14, 2-(4-(((2-(4′-chloro-[1,1′-biphenyl]-4-yl)cyclopropyl)amino)methyl)piperidin-1-yl)-N-hydroxypyrimidine-5-carboxamide TFA Salt] | 88 | 8 | 82
24 | O=C(NO)c1ccc(CCCN2CCC(CNC3CC3c3cccc(F)c3)CC2)cc1 (stereo not drawn) [Example 49, 4-(3-(4-(((2-(3-fluorophenyl)cyclopropyl)amino)methyl)piperidin-1-yl)propyl)-N-hydroxybenzamide TFA Salt] | 48 | 62 | 34
25 | O=C(NO)c1ccc(CCCNC2CC2c2ccc(F)cc2)cc1 (stereo not drawn) [Example 30, 4-(3-((2-(4-fluorophenyl)cyclopropyl)amino)propyl)-N-hydroxybenzamide TFA Salt] | 16 | 45 | 51
26 | O=C(NO)c1cnc(N2CCn3cc(CNC4CC4c4ccccc4)nc3C2)nc1 (stereo not drawn) [Example 23, N-hydroxy-2-(2-(((2-phenylcyclopropyl)amino)methyl)-5,6-dihydroimidazo[1,2-a]pyrazin-7(8H)-yl)pyrimidine-5-carboxamide TFA Salt] | 95 | 11 | 85
